This note sets out measurements from patent publication US7951359B2, “Compositions and methods for therapy or prevention of chemotherapy-induced neuropathy” (Merck Serono SA, priority 2004, dated 2011).

In data set [1] the test system is lung (SK-MES1) tumor cell line. As to the kind of experiment: Cell survival by acid phosphatase activity assay, SK-MES1. In kind it is cell-based, human. To be noted: 4 days. The procedure:
(§1) The human lung (SK-MES1) and breast (MCF7) tumor cell lines were obtained from ATCC. The cell lines were maintained in Dulbecco's MEM medium (Gibco; Invitrogen, Cergy-Pontoise, France, ref. 41965039) supplemented with 1% antibiotic/antimicotic mixture solution (Gibco, ref. 15240062), and 10% heat-inactivated foetal bovine serum (Gibco, ref. F7524, batch 92K3387). The cells were amplified in Nunc tissue culture flasks (80 cm2) in a humidified incubator at 37° C. with 5% CO2 in 95% air. Cultures were sub-cultured twice a week.
(§2) The enzymatic activity has been proven to be proportional to the number of living cells (Ueda et al.; 1994).
(§3) Three days after the last replication, tumor cells were seeded in 96 well-plates (TPP, VWR International, Fontenay-sous-bois, France) at a density of 1,500 cells (MCF7 line) or 3,000 cells (SK-MES1 line) per well, in a total volume of 100 μl/well and incubated overnight in a humidified incubator at 37° C. with 5% CO2 in 95% air. […] IL-6 (in buffer solution at 1.8 mg/ml, PH: 7) was immediately added at concentrations of 0, 3, 12, 50 or 200 ng/ml.
(§4) Four days after the initiation of the intoxication, acid phosphatase activity (Example 21) in each cell culture was assessed.
(§5) After removal of the culture medium, cells were rinsed with phosphate-buffered saline (PBS, Gibco, ref. 14190-094) and further incubated for 90 min at 37° C. in 100 μl of buffer containing 0.1 mol/l sodium acetate (pH 5.5), 0.1% Triton X100 (Sigma, ref. T9284) and 10 mmol/l p-nitrophenyl phosphate (Sigma, ref. N9389). Reaction was stopped by addition of 10 μl of 1 mol/l sodium hydroxide aqueous solution (Laboratoire de Produit Chimiques de la Robertsau, Strasbourg, France; ref. 28.252.293). Absorbance of the colored solution was measured at 405 nm in a microplate reader (Labsystems Multiskan Bichromatic, EST-LAB, Strasbourg, France).
(§6) The results were expressed as percentage of optical density of the control cell cultures. The heights of the columns represent mean±SEM of percentages of 5-6 wells from two independent cultures.

In data set [2] the test system is breast (MCF7) tumor cell line. Briefly: Cell survival by acid phosphatase activity assay, MCF7. The class given is cell-based, human. Particulars: 4 days. The procedure: as §1, §2, §3, §4, §5, §6
The test system of another data set is taxol induced neuropathy. As to the kind of experiment: Electrophysiological monitoring in taxol induced neuropathy, co-administration. The class given is in vivo, rat. On the procedure:
The aim of the following experiment was to investigate the potential neuroprotective effect of IL6 in an additional model of chemotherapeutic induced neuropathy mediated by taxol. The potential preventive effect of IL-6 co-administration was tested. Administration of IL-6 was initiated together with taxol administration. The doses of IL-6 of 3 and 10 μg/kg were administered daily or in the case 10 μg/kg also only 3 times per week.
Females 10 weeks old aged Dark Agouti rats were used, 12 animals per group were included as following
The taxol was diluted in a solution of cremophor/ethanol/dextrose 5% and administered twice a week during 4 weeks.
4-MC and test compounds treatment was initiated the first day of intoxication and was stopped at the end of the study.
The study was performed on 8 weeks (1 week for the baseline, 4 weeks for the taxol intoxication and 3 weeks of recovery).
Control, taxol, and taxol-IL-6 co-administered group of rats at the indicated doses were subjected to electrophysiological monitoring to assess the effect of IL-6 in taxol-induced loss of fiber/nerve function.
(§7) Sensitive nerve conduction velocity (SNCV) was also recorded. The tail skin electrodes were placed as follows: a reference needle inserted at the base of the tail and an anode needle placed 30 mm away from the reference needle toward the extremity of the tail. A ground needle electrode was inserted between the anode and reference needles. The caudal nerve was stimulated with a series of 20 pulses (for 0.2 ms) at an intensity of 12.8 mA. The velocity was expressed in m/s.
H-wave reflex was recorded in the hind footpad muscle after stimulation of the sciatic nerve. […] The sciatic nerve was stimulated with a single 0.2 ms pulse at supramaximal intensity. The amplitude (mV) of H wave and the proportion of animal lacking H wave response were the parameters studied.

For data set [3], the system named is vincristine induced neuropathy. As to the kind of experiment: Hot plate test in vincristine-treated rats. In kind it is in vivo, rat. To be noted: 4-MC 10 μg/kg IP daily. The procedure:
(§8) The rat was placed inside a glass cylinder of 17 cm height and 21 cm diameter on a heating-plate maintained at 52° C. (Medite OTS 40, Microm, Francheville, Rhône, France). The animal behavior was observed, particularly the licking of a foot and the adjusted leap. The latency before licking a foot or before jumping to escape the heat (adjusted leap) was recorded. The time needed to feel the thermal pain is related to the thermal sensitivity and tends to increase when thermal sensitivity is altered.
(In hot-plate and tail-flick tests a longer latency is read as antinociception.)

Data set [4] concerns cisplatin induced neuropathy. In kind it is in vivo, rat. Particulars: 4-MC 10 μg/kg IP daily. On the procedure:
Electrophysiological monitoring in cisplatin-induced neuropathy model was carried out as described in Example 17. The objective was to assess the effect of co-administration with IL-6 in cisplatin-induced loss of fiber/nerve function.
(§9) Electrophysiological recordings were performed using a Neuromatic 2000M electromyograph (EMG) (Dantec, Les Ulis, France). Rats were anaesthetized by IP injection of 60 mg/kg ketamine chlorhydrate (Imalgene 500®, Rhône Merieux, Lyon, France). The normal body temperature was maintained around […] with a heating lamp and verified using a contact thermometer (Quick, Bioblock Scientific, Illkirch, France) placed on the tail surface.
(§10) Compound muscle action potential (CMAP) of M wave signal (or electrically evoked muscle potential) was recorded in the gastrocnemius muscle after stimulation of the sciatic nerve. M wave reflects the current developed during the action potential of muscle fibers. A reference electrode and an active needle were placed in the hind paw. A ground needle was inserted on the lower back of the rat. Sciatic nerve was stimulated with a single 0.2 ms pulse at supramaximal intensity. The […] of the motor wave was recorded and expressed in ms.
as §7
(§11) H-wave reflex was recorded in the hind footpad muscle after stimulation of the sciatic nerve. A reference electrode and a ground needle were placed on the lower back of the rat. The sciatic nerve was stimulated with a single 0.2 ms pulse at supramaximal intensity. The amplitude (mV) of H wave and the proportion of animal lacking H wave response were the parameters studied.

For data set [5], the system named is cisplatin induced neuropathy. Briefly: Hot plate test, therapeutic treatment of established cisplatin neuropathy. The class given is in vivo, rat. To be noted: 4-MC 10 μg/kg IP daily from day 23; after 2 weeks; p≦0.05.
The subject of data set [6] is vincristine induced neuropathy. Briefly: Morphometric analysis of sciatic nerve in vincristine-treated rats. The class given is in vivo, rat. To be noted: 4-MC 10 μg/kg IP daily. The procedure:
Histomorphometric analyses were carried out as described in Example 18 at the completion of the experiments, to explore morphologic changes occurring in fiber and axon diameter and myelin thickness in rats treated with vincristine and in rats co-administrated with IL-6.
With vincristine, morphometric analysis was performed 2 week after the end of vincristine administration on 3 animals per group. The animals were anesthetized by IP injection of 100 mg/kg Imalgène 500®. A 5 mm segment of sciatic nerve was excised, fixed overnight with 4% glutaraldehyde (Sigma, L'Isle d'Abeau-Chesnes, France) in phosphate buffered saline (PBS) (pH=7.4) and maintained in 30% sucrose and stored at 4° C. until further processing. At the time of use, the nerve sample was post-fixed in 1% osmium tetroxide (Sigma, L'Isle d'Abeau-Chesnes, France) in PBS for 2 h, dehydrated in serial alcohol solution, and embedded in Epon. Embedded tissues were then placed at 70° C. during 3 days to allow polymerization of the tissue wax. Cross sections of 1.5 μm thick were performed and they were stained with a 1% toluidine blue solution (Sigma, L'Isle d'Abeau-Chesnes, France) for 2 min, dehydrated and mounted on Eukitt. Twelve sections per sample were examined using an optical microscope (Nikon, Tokyo, Japan) and analyzed using, a semi-automated digital image analysis software (Biocom, France). The fiber diameter (a), axon diameter (b), and myelin thickness (c) were measured as illustrated below.

The subject of data set [7] is vincristine induced neuropathy. As to the kind of experiment: Electromyography (EMG) in vincristine-treated rats. In kind it is in vivo, rat. Particulars: 4-MC 10 μg/kg IP daily with vincristine. On the procedure:
In parallel to behavioral tests, electrophysiological test as described in Example 17, were carried out to evaluate fiber/nerve function in vincristine-administered rats vis-à-vis rats co-administrated with IL-6.
as §9, §10, §7, §11

The subject of data set [8] is cisplatin induced neuropathy. Briefly: Hot plate test in cisplatin-treated rats, co-administration. To be noted: 4-MC 10 μg/kg IP daily; 3 weeks. In kind it is in vivo, rat. On the procedure: as §8
The subject of data set [9] is cisplatin induced neuropathy. In kind it is in vivo, rat. On the procedure: The drug was diluted in 0.9% sterile aqueous solution of sodium chloride.
4-MC was diluted in 0.9% sterile aqueous solution of sodium chloride and injected daily via IP route from day 23 to the end of the experiment.
Electrophysiological tests described in Example 17, were carried out in parallel to the behavioral tests (described in the preceding example) in cisplatin-established neuropathy model. The objective was to assess the therapeutic effect of IL-6 in cisplatin-induced loss of fiber/nerve function.
as §9, §7, §11

The subject of data set [10] is cisplatin induced neuropathy. As to the kind of experiment: Morphometric analysis of sciatic nerve in cisplatin-treated rats, co-administration. Particulars: 4-MC 10 μg/kg IP daily. The class given is in vivo, rat. The procedure:
The total number of fibers per nerve section was obtained from 3 randomized slices of each sample. The counting was performed on 2 selected fields per slice.

For data set [11], the system named is cisplatin induced neuropathy. As to the kind of experiment: Morphometric analysis, therapeutic treatment of established cisplatin neuropathy. In kind it is in vivo, rat. To be noted: 4-MC 10 μg/kg IP. The source says:
The number of degenerated and non-degenerated fibers on the entire surface of each nerve section was counted by an operator in a blinded fashion. All the results (except the data expressed as ratio value) were reported as percentage of changes in reference to the control value.

Setting [12] is: cisplatin (2.5 μM), carboplatin (25 μM).

Consider `CC(=O)O[C@H]1C(=O)[C@@]2(C)[C@H]([C@H](OC(=O)c3ccccc3)[C@]3(O)C[C@H](OC(=O)[C@H](O)[C@@H](NC(=O)c4ccccc4)c4ccccc4)C(C)=C1C3(C)C)[C@]1(OC(C)=O)CO[C@@H]1C[C@@H]2O` [taxol], for which, in data set [1] (taxol, 'this concentration' (30 nM)), the “decrease of cell survival” value is “about 70%”. The “decrease in cell survival” value in data set [2] (taxol 30 nM) is reported as “about 55%”. Besides, the “SNCV versus non-treated control” value in the data set with taxol induced neuropathy (taxol alone, 3 weeks) was “significantly slower”. For the same compound, the H wave latency result is recorded as “significant increase” in the data set with taxol induced neuropathy (taxol alone, 3 weeks after taxol treatment) and “dramatically increased” in the data set on taxol induced neuropathy (taxol alone, 6 weeks after taxol treatment).
For `Cc1ccc(O)c(O)c1` [4-MC, 4-methylcatechol], the “prevention of vincristine-induced nociception loss (hot plate)” value in data set [3] is recorded as “did not appear to have any major preventive effect”. In addition, the “loss of H wave induced by cisplatin” value in data set [4] was “only a delayed and transient effect”. In data set [4] (only after 5 weeks), the “decrease in SNCV by cisplatin” value is “transiently prevented the decrease in SNCV”. In data set [5], the “time of the first reaction to heat” value is “Reduction of the time of the first reaction to heat”. Further, in [6], the “decrease in axon diameter by vincristine” value is recorded as “significantly reduced/prevented the decrease in axon diameter”, the “percentage of degenerated fibers in vincristine treated rats” value is given as “decreased the percentage of degenerated fibers” and the vincristine-induced fiber shrinkage result was “protected”. Further, the “protection against loss of M wave amplitude” value in data set [7] is on record as “protect the loss of M wave amplitude only transiently”. Also, the “first reaction time versus cisplatin alone” value in data set [8] is recorded as “slight but not significant decrease”. The “cisplatin-induced H wave loss in amplitude” value in data set [9] (4-MC 10 μg/kg IP daily from day 23) is given as “reversed the cisplatin-induced H wave loss in amplitude”. Further, in [9] (4-MC 10 μg/kg IP, significant only 2 weeks after treatment initiation), the “SNCV in cisplatin-treated animals” value is “appeared to improve SNCV”. Besides, the “prevention of H-wave amplitude reduction by taxol” value with taxol induced neuropathy (4-MC 10 μg/kg daily i.p.) is recorded as “not significant”. In the data set on taxol induced neuropathy (4-MC 10 μg/kg daily i.p., weeks 3, 5, 6 and 7), the “H wave latency under taxol” value was “improvement in H wave latency”. For the same compound, in [10], the “cisplatin-induced decrease in fiber or axon diameter” value is “protected against the decrease in cisplatin-induced fiber diameter or axon” and the “loss of myelin wall by cisplatin” value is listed as “significant protection against loss of myelin wall”. Also, the “cisplatin-induced myelin sheath thinning” value in [11] is “did not interfere with cisplatin-induced myelin sheath thinning”. The “proportion of degenerated fibers” value in [11] (p>0.05) is “slight but not significant reduction”.
For `N.N.O=C([O-])C1(C(=O)[O-])CCC1.[Pt+2]` [carboplatin], the “decrease in cell survival versus control” value in data set [1] (setting [12]) and in [2] (setting [12]) was “about 50%” in each case.
